In patent US11632972B2, “S-nitrosothiol compounds and their combinations with nitrosamine blocking agents for safe food preservation” (YISSUM RESEARCH DEVELOPMENT COMPANY OF THE HEBREW …, priority 2017, dated 2023):

Assays:
[1] = Effect on the color of the meat (Hunter L*, a*, b*, colorimeter); parameters: species or system beef; details: aerobic conditions, period of 24 h
Protocol: Nitrite is known to be responsible for the characteristic pink color associated with cured meat products and flavor stabilization. The color development and color stability of ground beef treated S-nitroso-cysteine and S-nitroso-N-acetylcysteine after heating to 72° C. was compared to the color of ground beef treated with nitrite. A portable colorimeter (X-rite) was used to measure Hunter color lightness, redness and yellowness (L*, a*, b*) values of ground beef samples treated with the different additives and heated in a microwave oven (Dow, S-Korea, at 800 W) to 72° C. in the center. The instrument was standardized using white and black standard plates.

[2] = system: naturally occurring bacteria; assay: Aerobic colony count in smoked beef shoulder pastrami; details: pastrami stored at 4° C. for three months; amount equivalent to 150 ppm sodium nitrite; plates 30° C. 24 hr
Protocol: Aerobic colony count of naturally occurring bacteria in smoked beef shoulder pastrami: 5 gr of the pastrami manufactured in a meat factory as described above were homogenized in a sterile grinder with 45 ml of sterile saline, then further diluted with saline. The diluents were plated on BHI agar plates and incubated at 30° C. for 24 hr then colonies were counted and CFU calculated.

[3] = system: naturally occurring bacteria; assay: Aerobic colony count in ground beef shoulder; details: 2.5 mM preservative; for bacteria count (aerobic colony count): after 1 week of storage at 4° C.; for bacteria concentration (aerobic colony count): after 4 weeks at 4° C.
Protocol: 10 gr of ground beef shoulder was mixed with 1 ml (25 mM) aqueous solution of the tested preservative (Sodium nitrite, S-nitroso-cysteine and S-nitroso-N-acetylcysteine) or DDW for control and 1 ml of NaCl solution (10% w/v). The final concentrations were 2.5 mM preservative (where Kg meat=L) and 1% (w/w) NaCl. The meat was divided to 1 gr portions and placed in open vacuum bags, then heated in a water bath at 75° C. for 15 min and sealed by […] C100 at a vacuum of 8 mbar. The bags were transferred to 4° C. for cooling and storage. After time periods of 1 hr, 1 week and 4 weeks elapsed, the bags were opened in a hood and 1 gr of meat was homogenized in a sterile grinder with 9 ml of sterile saline, then the homogenate was diluted further with saline and the diluents were plated on BHI agar plates. The plates were incubated at 30° C. for 24 hours then colonies were counted and CFU calculated.

[4] = Formation of N-nitroso-N-methylaniline from N-methylaniline with nitrosilating agent (2.5 mM) in citrate buffer at 37° C.; details: 2.5 mM agent, 2.5 mM N-methylaniline, pH 6.2
Protocol: The HPLC separation was performed on a Merck/Hitachi HPLC system consisting of a LaChrom L 7100 pump and a LaChrom DAD L 7450 detector. The system was operated with a data processor working with a LaChrom interface D 7000 and the EZChrom Elite 3.3.1 software. The mixture was separated on a Kinetex EVO C18 column (250×4.6 mm, 5 μm) using a gradient elution system, solvent A was 5% acetonitrile in water (v/v) and B was acetonitrile. Gradient conditions were initial=0% B, 25 min=70% B and 30 min=100% B. The flow rate was constant at 1.0 mL min^−1. The injection loop volume was 20 μL, absorbance was monitored at 272 nm.
The experiment of Example 1 was repeated with a tenfold increase of concentration of the reactants. That is, reaction mixtures were prepared by mixing in citrate buffer, at pH=3.0 and at pH=6.2, N-methylaniline (2.5 mM) and NaCl (2.5 mM) together with an equimolar amount of the tested nitrosilating agent, used either alone or in combination with ascorbic acid, as set out below: […]

Structure (SMILES)	color stability (ΔE*) over time [1]	aerobic colony count (concentration of bacteria) [2]	bacteria count (aerobic colony count) [3]	bacteria concentration (aerobic colony count) [3]	kinetics of N-nitroso-methylaniline formation (UV absorbance at 270 nm versus time) [4]
O=NO [sodium nitrite]	decreased over time	8*10^3 CFU/ml	5.8*10^3 cfu/ml	~10^8	
N[C@@H](CSN=O)C(=O)O [S-nitroso-cysteine, S-nitrosocysteine]			~2.0*10^2 cfu/ml	lower bacteria concentration	reacts rapidly with N-methylaniline to produce progressively increasing amounts of nitrosamine
CC(=O)N[C@@H](CSN=O)C(=O)O [S-nitroso-N-acetylcysteine]	remained stable	7*10^3 CFU/ml	~2.0*10^2 cfu/ml	lower bacteria concentration	significantly lesser
